“And” between values parts separate entries of the source, which are not always exact repeats. Equal entries are not always repeated. “Also recorded” adds a separate entry of the source. Where two headings read alike, the source gives them in different places.
Tests used:
[1] = tested on: mean arterial pressure and heart rate of anesthetized rats; test: Systemic hemodynamic effects, intravenous, anesthetized rats (Example 9); type: in vivo, rat (male Wistar)
Protocol: Among other effects, lowering of the blood pressure inside the blood vessels is beneficial for the treatment of congestive heart failure by reducing the vascular resistance of the blood flow which substantially reduces the work load imposed on the heart. […] This study involved the use of male Wistar rats anaesthetized with thiopentone sodium ([…]®, 120 mg kg^-1 i.p.). The trachea was cannulated to facilitate breathing.

[2] = tested on: Human Platelet Aggregation (collagen-induced); test: Anti-aggregatory response after incubation with PPP (Example 8); type: cell-based; settings: up to 4 hours at 37° C
Protocol: (§1) Blood from healthy human volunteers who had not taken any medicine for at least 14 days was collected by venopuncture into 3.15% (w/v) tri-sodium citrate (9:1 v/v). The blood was centrifuged at 800 g for 15 minutes to produce PRP. The PRP was further centrifuged at 12,000 g for 1 minute to produce PPP. A total of 12 volunteers donated blood for the study.
(§2) Platelet aggregation was studied using a dual channel Payton aggregometer calibrated with PRP (0%) and PPP (100%) with respect to the degree of light transmission. Aliquots of PRP (500 μl) were added to siliconized cuvettes, stirred (1000 revs/min) and warmed to 37° C. The platelets were incubated for 1 minute to establish a stable baseline prior to investigation. A submaximal concentration of the aggregating agent collagen (1 μg/ml) was added to the PRP and the platelet aggregation was monitored as the increase in light transmission observed over a 4 minute period.
(§3) After the incubation period, an aliquot of the PPP or aqueous vehicle (50 μl) was added to fresh PRP (450 μl) for determination of anti-platelet activity. This experiment was repeated using PPP from at least three human volunteers for each compound.

[3] = tested on: Human Platelet Aggregation (collagen-induced); test: Anti-aggregatory activity, 1 min incubation with PRP, collagen-induced (Example 8); type: cell-based; settings: 1 minute with PRP
Protocol: as §1, §2
The percentage inhibition of the platelet aggregation was calculated using the peak increase in light transmission observed over the 4 minute period following addition of collagen, as compared to that of control. This experiment was repeated using PRP from at least three human volunteers for each compound under study.

[4] = tested on: Human Platelet Aggregation (collagen-induced); test: Anti-aggregatory response after incubation with aqueous vehicle (acetate buffer) (Example 4); type: cell-based
Protocol: as §1, with “PPP.” for “PPP. A total of 12 volunteers donated blood for the study.”
as §2, with “measured” for “studied”, “testing.” for “investigation.”
After the incubation period, a 50 μl aliquot of the aqueous vehicle with the corresponding sample compound was added to fresh PRP (450 μl) for determination of anti-aggregatory activity following challenge with collagen. This experiment was repeated using PPP from at least three human volunteers. […] The data in both Tables 2 and 3 are shown as the mean and the standard error of n number of donors.

[5] = tested on: mean arterial pressure and heart rate of anesthetized rats; settings: for Time of Δmax (superscript) / t1/2 / Δmax (Mean Arterial Pressure): Table 4; for Mean Arterial Pressure: 0,1,5,10,15,30,60,120,180,240,360 min
Protocol: Male Wistar rats (250-330 g) were anesthetized with thiopentone sodium (INTRAVAL®, 120 mg/kg i.p.). The trachea was cannulated to facilitate respiration. The right carotid artery was cannulated and connected to a pressure transducer (Spectramed P23XL), for the measurement of mean arterial pressure (MAP) and heart rate (HR) which were continuously recorded on a 4-channel Grass 7D polygraph recorder (Grass, Mass., U.S.A.). Body temperature was maintained at 37±1°C. by means of a rectal probe thermometer attached to a homeothermic blanket control unit (Harvard Apparatus Ltd.).

[6] = tested on: mean arterial pressure and heart rate of anesthetized rats; test: Systemic hemodynamic effects, intravenous, anesthetized rats (Example 5); type: in vivo, rat (male Wistar)
Protocol: The time for onset and maximal response were evaluated, as well as the time taken for the response to return to 50% of the baseline value for comparing effective lives. Among other effects, lowering of the blood pressure inside the blood vessels is beneficial for the treatment of congestive heart failure by reducing the vascular resistance blood flow, and thus the work load imposed on the heart.
Male Wistar rats were anesthetized with thiopentone sodium (INTRAVAL®, 120 mg kg^-1 i.p.). The trachea was cannulated to facilitate breathing. The right carotid artery was cannulated and connected to a pressure transducer (Spectramed P23XL), for the measurement of mean arterial pressure (MAP) and heart rate (HR) which were continuously recorded on a 4-channel Grass 7D polygraph recorder (Grass, Mass., USA). The left femoral vein or the right jugular vein was cannulated for the administration of drugs. The body temperature of the test animal was maintained at 37±1° C. by means of a rectal probe thermometer attached to a homeothermic blanket control unit (Harvard Apparatus Ltd).
After a 15 minute stabilization period, the animals were injected once intravenously with selected doses of each compound, and hemodynamic parameters were continuously monitored for three hours in order to ascertain the duration of action of the compounds under study.

[7] = tested on: Human Platelet Aggregation (collagen-induced); test: Anti-aggregatory response after incubation with aqueous vehicle (Example 8); type: cell-based; settings: up to 4 hours at 37° C
Protocol: as §1, §2, §3

[8] = i.v., Compound X 0.1 and 1 mg/kg, Compound 1 doses of b230

CCCCC[C@H](O)CC[C@@H]1[C@H]2Cc3cccc(OCC(=O)O)c3C[C@H]2C[C@H]1O [Compound X]
effective life of the fall in MAP ([1]; comparison of Compound 4 with Compound X (1 mg/kg i.v.)): 30 min
fall in MAP ([1]; i.v., Compound X 1 mg/kg, Compound 4 1-10 mg/kg, others 3-30 mg/kg): similar, maximal fall in MAP to the highest dose of Compound 4
effect of incubation with PPP on anti-platelet activity [2]: not affected by incubation
concentration inhibiting aggregation by 50% (IC50) [3]: 0.019 ± 0.001 µg/mL
inhibition of platelet aggregation, concentration dependence [3]: concentration dependent inhibition of collagen-induced platelet aggregation
inhibition of aggregation response at highest concentrations ([3]; X 30 and 100 ng/ml, 4 300 μg/ml, 6 3 mg/ml, 7 10 mg/ml): completely inhibited the aggregation response
Platelet Aggregation (mean) ([4]; 3 ng/ml final, 1 Hour in acetate buffer): 107 % of Control
Platelet Aggregation (mean) ([4]; 3 ng/ml final, 4 Hours in acetate buffer): 94 % of Control
Platelet Aggregation (mean) ([4]; 3 ng/ml final, 15 Minutes in acetate buffer): 98 % of Control
Platelet Aggregation (mean) ([4]; 30 ng/ml final, 1 Hour in acetate buffer): 8 % of Control
Platelet Aggregation (mean) ([4]; 30 ng/ml final, 4 Hours in acetate buffer): 8 % of Control
Platelet Aggregation (mean) ([4]; 30 ng/ml final, 15 Minutes in acetate buffer): 3 % of Control
effect of incubation with aqueous vehicle on anti-platelet activity ([4]; 15 minutes, 1 hour and 4 hours): no significant effect on the degree of anti-platelet activity
Time of Δmax (superscript) ([5]; 0.1 mg/kg s.c.): 15 min
t1/2 ([5]; 0.1 mg/kg s.c.): 2.75 h
Δmax (Mean Arterial Pressure) ([5]; 0.1 mg/kg s.c.): 46 ± 5 mm Hg
Mean Arterial Pressure ([5]; 0.3 mg/kg s.c.): 101 ± 12 mm Hg
Time of Δmax (superscript) ([5]; 0.3 mg/kg s.c.): 10 min
t1/2 ([5]; 0.3 mg/kg s.c.): 1.33 to 1.83 h
Δmax (Mean Arterial Pressure) ([5]; 0.3 mg/kg s.c.): 52 mm Hg
maximum fall in MAP ([5]; 1 mg/kg s.c.): about 70 mm Hg
time of maximum fall in MAP ([5]; 1 mg/kg s.c.): 15 min
Mean Arterial Pressure ([5]; 1 mg/kg s.c.): 88 ± 5 mm Hg and 98 ± 6 mm Hg
Time of Δmax (superscript) ([5]; 1 mg/kg s.c.): 15 min
t1/2 ([5]; 1 mg/kg s.c.): 2.25 to 4.83 h
Δmax (Mean Arterial Pressure) ([5]; 1 mg/kg s.c.): 71 ± 8 mm Hg
heart rate / tachycardia ([5]; rat, in vivo, sc): dose-dependent increase in heart rate
fall in MAP ([5]; s.c., Compound 4 1-10 mg/kg, Compound X 0.1-1 mg/kg, Compounds 7 and 8 3-30 mg/kg): rapid dose-related fall in MAP
effective life (MAP returning to 50% of baseline value) ([6]; 0.1 mg/kg i.v.): about fifteen
effective life (MAP returning to 50% of baseline value) ([6]; 1.0 mg/kg i.v.): about thirty
decline in MAP ([6]; i.v.): immediate, dose related decline in the MAP; also recorded: substantial dose-related fall in MAP
maximum decline in MAP [6, 8]: about 70 mm Hg
time of maximum decline in MAP [6, 8]: within the first minute
effect of incubation with aqueous vehicle/saline/buffer on anti-platelet activity [7]: not affected by incubation

From patent publication US6242482A, “Prostaglandin compounds and derivatives thereof, compositions containing the same and method of using the same for the treatment of congestive heart failure” (priority 2000, dated 2001)
